Experimental data from patent US4650888A, “Pentaerythritol derivative” (Chugai Seiyaku Kabushiki Kaisha, priority 1984, dated 1987).

System: Shay rats (pylorus-ligated, gastric ulcers in the forestomach)
Assay: Anti-ulcer activity on Shay rats
Assay type: in vivo
Details: male SD rats, 300 mg/kg orally, 16 hours
Experimental: Anti-ulcer activity on Shay rats:
Male SD rats (180-200 g) were deprived of food for 48 hours and had free access to water. Under ether anesthesia the abdomen of each rat was incised and the pylorus ligated. Concurrently the test complex was orally administered and the abdomen was closed. The animals were killed 16 hours later by an overdose, and the stomach of each rat removed. The stomach was incised along the greater curvature and examined for gastric ulcers developed in the forestomach. The damaged mucosa in shay ulcers was measured under a dissecting microscope (x10) with a square grid, summed, and arbitrarily classified into 5 degrees by an erosion index.

O=S(=O)([O-])OCC(COCC(COS(=O)(=O)[O-])(COS(=O)(=O)[O-])COS(=O)(=O)[O-])(COS(=O)(=O)[O-])COS(=O)(=O)[O-].[Na+].[Na+].[Na+].[Na+].[Na+].[Na+] [Na salt, Sodium salt of sulfuric acid ester of dipentaerythritol]
Erosion Index (mean ± SE): 1.4 ± 0.2
Percent Inhibition (%) (versus control (H2O)): 58.8%
